Article PMC5309220, “Screening for Small Molecule Inhibitors of Statin-Induced APP C-terminal Toxic Fragment Production” (Frontiers in Pharmacology, 2017)
“Also recorded” adds a separate entry of the source. Structures can show the parent of a compound that is named as a salt. Where two headings read alike, the source gives them in different places.

Experiments:
caspase 8 = conditions: potency stated for the inhibitor, no reference given; cited from earlier work
[1] = tested on: cerivastatin-induced APPΔC31 in CHO-7W cells; test: APPΔC31 AlphaLISA dose-response, cerivastatin-induced; type: cell-based, Chinese hamster; conditions: 24 h; for IC50: Cricetulus griseus
Description: The APPΔC31 AlphaLISA assay (Figures 2C–E) was run directly in the plate with the cell lysate as described above in “AlphaLISA to detect APPΔC31.” APPΔC31 levels were measured using the Envision plate reader and data were normalized to DMSO (100% APPΔC31 production) and Q-VD-OPh (MP Biomedicals) pan-caspase inhibitor at 30 μM (0%); these controls were present on each plate. In addition, some compounds of interest were further analyzed in a dose-response curve to determine IC50 values.
The broad-spectrum pan-caspase inhibitor Q-VD-OPh served as the positive control.
Lysates were prepared and APPΔC31 determined by ELISA. (B) CHO-7W cells were treated with 10 μM cerivastatin plus increasing doses of caspase and MEK inhibitors for 24 h. Lysates were prepared and APPΔC31 determined by AlphaLISA. Click here for additional data file.

in vitro = conditions: Chinese hamster
[2] = tested on: APPΔC31 production in CHO-7W cells; test: Statin induction of APPΔC31, ELISA; type: cell-based, Chinese hamster; conditions: 24 h
Description: An HRP-conjugated secondary antibody is then added and a colorimetric signal generated by enzymatic conversion of the tetramethylbenzidine (TMB) substrate. Protein levels were first determined using a colorimetric coomassie assay (Coomassie Plus, Thermo).
APPΔC31 was determined in cell lysates by ELISA.

[3] = PAMPA / immobilized artificial membrane (IAM.PC.DD2) chromatography; type: in vitro ADME; conditions: for BBB Penetration Prediction: from KIAM/MW^4 x 10^10, cut-off 0.85
Description: Immobilized artificial membrane (IAM) chromatography such as PAMPA (parallel artificial membrane permeability assay) is used to predict a compound’s passive diffusion through membranes and may predict blood-brain barrier (BBB) penetrance.
To minimize variability between PAMPA assays for different compounds, the well-characterized, reliable IAM.PC.DD2 Regis Technologies analytical columns were used. In these 10 cm × 4.6 mm columns, the phospholipid is bonded on 10 μm, 300 Å, spherical aminopropyl silica and end capped with C10 and C3 amides.
Columns were connected to an Agilent high performance liquid chromatography system. […] The mobile phase was a mixture of water and methanol and a gradient was used for the elution of the compounds. The detector was set at 250 and 280 nm. After a compound was eluted, the retention time and void volume times were obtained from the chromatogram.
The IAM capacity factor (KIAM) was calculated using the equation: KIAM=tr−t0/t0 ; where tr is the
retention time of a compounds and t0 is the void volume time of the column. […] To predict the likelihood a compound would be BBB penetrant, we used the correlation described by [Yoon et al. (2006)]:
• (I) If KIAM/MW^4x10^10 > 0.85 the BBB penetration is predicted to be high • (II) If KIAM/MW^4x10^10 < 0.85 the BBB penetration is predicted to be low

sAPPα in CHO-7W cultures = test: sAPPα ELISA in cell media; type: cell-based, Chinese hamster; conditions: QVD, Sp, 3′F-Sp at 10, 30, and 30 mM, respectively (so in the source), with 10 μM cerivastatin, 24 h, vs CS alone, n = 2
Description: (§1) In an additional study (Supplementary Figure S5A), measurement of the α secretase fragment of full length (FL) APP – soluble APP alpha (sAPPα) – was performed using cell media by ELISA (IBL). Furthermore, in two studies (Supplementary Figures S5B,C), total protein levels in CHO-7W cell lysates were determined by Coomassie Plus protein assay (Pierce).
(§2) Supplementary file Data_Sheet_1.docx: FIGURE S5 Effect of lead compounds on protein concentration and sAPPα. […] (B) Total protein from lysates of CHO-7W cells treated with either 30 μM QVD or 10 μM Sp alone for 24 h was similar to the vehicle control (n = 1). (C) Total protein from CHO-7W lysates treated with 10 μM CS alone or in combination with QVD, Sp, or 3′F-Sp at the concentrations shown increased (n = 1). Statistical analysis was performed using one-way ANOVA and Dunnett post-test for comparison to the 10 μM CS control (^∗∗p < 0.001, ^∗∗∗p < 0.0001). Click here for additional data file.

CHO-7W cells [4] = conditions: at 30 μM, with 10 μM cerivastatin, among hits from HTS
[5] = In vivo pharmacokinetic analysis of spiperone; parameters: species or system mice (C57B6)
Description: As PAMPA is merely a predictive analysis of brain permeability, a pharmacokinetic (PK) study with spiperone was performed. […] Another 5 mice were injected intraperitoneally (IP) at the same dose. One mouse was euthanized from each dosing route group at 1, 2, 4, 6, and 8 h. This is done by ketamine/xylazine over- anesthesia followed by blood collection for plasma isolation by cardiac puncture, and transcardial perfusion of tissue with saline to remove residual blood from the brain. Both plasma and brain tissue were sent to Integrated Analytical Solutions (IAS, Berkeley, CA, USA) for compound level analysis using an LC-MS-MS method.

CHO-7W cells [6] = test: Total protein in CHO-7W cell lysates (Coomassie Plus); type: cell-based, Chinese hamster; conditions: n = 1; for effect on protein concentration in lysates, compound alone (in words): QVD alone at 30 μM, spiperone alone at 10 μM, 24 h, vs vehicle; for effect on total protein concentration with cerivastatin (in words): QVD, spiperone, 3′fluorobenzylspiperone at 30, 10, and 10 μM, respectively, with 10 μM cerivastatin
Description: as §1, §2

[7] = tested on: cerivastatin-induced APPΔC31 in CHO-7W cells; test: APPΔC31 immunoblot of CHO-7W cell lysates; type: cell-based, Chinese hamster; conditions: compound at 30 μM, 10 μM cerivastatin, 24 h
Description: For immunoprecipitation, approximately 300 μg cell lysate supernatants were brought to 250 μL with cold RIPA + PI buffer in microfuge tubes. One μL of 6E10 APP antibody (Covance) was added and the mixture was rotated overnight in a cold room. The next day, 25 μL of protein A/G beads (Santa Cruz Biotech) were added and the samples were rotated for 1.5 h in the cold room. The beads were then centrifuged down and washed four times with cold PBS. Forty μL 1x LDS sample buffer + DTT was added to the pellets, which were heated to 70°C for 10 min, vortexed and centrifuged. Supernatants were loaded onto Nupage 4–12% Bis-Tris gels (Life Technologies) for electrophoresis and were then transferred to 0.2 μm PVDF membrane for immunoblotting with the anti-APPΔC31 antibody.
(A) CHO-7W cells were treated with 10 μM cerivastatin (CS) along with varying concentrations of Q-VD-OPh (QVD) for 24 h. Cell lysates were prepared and immunoprecipitated with anti-APP (6E10) overnight at 4°C and then incubation with Protein A/G beads (Santa Cruz Biotech). The resulting pellets were incubated, electrophoresed using Nupage 4–12% Bis-Tris gels (Life Technologies) and the 0.2 μm PVDF membrane probed with anti-APPΔC31. (B) CHO-7W cells were treated with increasing concentrations of CS or 10 μM CS together with increasing concentrations of 3′-fluorobenzylspiperone maleate (3′-F-Sp) or 30 μM QVD for 24 h. […]

[8] = tested on: cerivastatin-induced APPΔC31 production in CHO-7W cells; test: APPΔC31 ELISA validation assay, cerivastatin-induced; type: cell-based, Chinese hamster; conditions: 10 μM cerivastatin, 24 h; for APPΔC31 Inh. (mean %): CHO-7W cells, test concentration not given
Description: The APPΔC31 ELISA developed in partnership with Enzo Life Sciences (ADI-900-227) follows a standard sandwich ELISA design wherein a monoclonal N-terminal APP-specific antibody is used to coat the wells of the microtiter plate (capture antibody) and the anti-APPΔC31 cleavage site-specific polyclonal antibody serves as the detection antibody. An HRP-conjugated secondary antibody is then added and a colorimetric signal generated by enzymatic conversion of the tetramethylbenzidine (TMB) substrate. Protein levels were first determined using a colorimetric coomassie assay (Coomassie Plus, Thermo).
A subset of hits from our HTS was validated in a secondary assay. […] Thapsigargin also acts as a sarco/endoplasmic reticulum calcium ATPase (SERCA) inhibitor. Therefore, another SERCA inhibitor, 2,5-Di-tert-butylhydroquinone, was also added to the testing. In this secondary assay, CHO-7W cells were cultured as described above and plated into 24-well dishes at ∼200K/well. […] These hits were selected for their potency in primary screen, their structural features, their known activities, and availability of compound for additional testing. There were cerivastatin-only (negative control), + QVD-OPh (positive control), and for viability, vehicle-only (negative) controls. Cells were harvested by removing the media to a tube, adding […] trypsin to detach cells then neutralizing with media. […] Cells were centrifuged at 5000 rpm (2300 × g) for 5 min. Cell pellets were frozen until use. Forty μL cold RIPA buffer plus complete protease inhibitors (Roche) was added to each pellet and the pellets were reconstituted by pipetting up and down, incubating on ice for 30 min, vortexing, and centrifugation as above. Cell lysate supernatants were then assayed by APPΔC31 ELISA as described above. For most compounds, multiple/repeat studies were performed and two wells used for each condition. Statistical comparison was performed using one-way ANOVA for multiple comparisons, with a Dunnett post hoc test to compare each condition to the control. Further dose-response studies were performed on select compounds.

[9] = tested on: cerivastatin-induced APPΔC31 in I5 mouse hippocampal slice cultures; test: Ex vivo organotypic hippocampal slice cultures, APPΔC31 ELISA; conditions: 72 h, read-out: inhibition of APPΔC31 production
Description: I5 mice originally purchased from Jackson labs (JAX B6.Cg-Tg(PDGFB-APP)5Lms/J) were bred and maintained in the Buck Institute vivarium facility, and used under the guidelines of an approved institutional IACUC protocol. P5–7 day mice were sacrificed using CO2 gas and cervical dislocation according to established IACUC protocols. Brains were removed, and under sterile conditions, hippocampi were dissected out on ice in Hybernate media + 1:400 Glutamax, 1:100 Pen/Strep and 1:50 B27 supplement (all Life Technologies). Hippocampi were laid parallel on a tissue chopper (McIlwain) in a small amount of media and sliced at 400 μm thick. Millicell-CM 6-well cell culture inserts (Millipore, 0.4 μm) were prehydrated by pipetting 750 μL culture media under each well and placing in a 35°C, 5% CO2 incubator for at least 30 min. Culture media: 100 mL MEM-HEPES, 50 mL HBSS, 50 mL HI horse serum, 1 mL 100x Pen/Strep (all Gibco), 1.3 g (6.5 mg/mL) glucose, and 2 mL 200 μM (2 mM) Glutamax, sterile filtered. […] Protein was quantitated for each sample using Coomassie Plus reagent (Thermo). […]
Tissue was harvested and lysates analyzed for APPΔC31 by ELISA. Lysates were protein normalized and expressed as a % of control.

[10] = AlphaLISA dose-response (Figure 5C), cerivastatin-stimulated

Row | effect on protein concentration in lysates, compound alone (in words) (CHO-7W cells [6]) | SMILES | BBB Penetration Prediction [3] | effect on sAPPα (in words) (sAPPα in CHO-7W cultures) | effect on total protein concentration with cerivastatin (in words) (CHO-7W cells [6]) | % Min (APPΔC31 dose-response) [1, 10] [%] | effect on CS-induced APPΔC31 by immunoblot (in words) [7] | APPΔC31 Inh. (mean %) [8] [%] | further results
1 |  | FC(F)(F)c1cccc(-c2csc(C3COc4ccccc4O3)n2)c1 (stereo not shown) [Caspase Inhibitor X] |  |  |  |  |  |  | IC50 (caspase 8): 2.7 µM; inhibition of cerivastatin-induced APPΔC31 (in words) ([1]; highest concentration tested (30 μM), 10 μM cerivastatin, AlphaLISA): somewhat effective
2 |  | COCc1c(C(C)C)nc(C(C)C)c(/C=C/[C@@H](O)C[C@@H](O)CC(=O)O)c1-c1ccc(F)cc1 [Cerivastatin] |  |  |  |  |  |  | viability at 24 h, 10 µM (in vitro): 15%; induction of APPΔC31 (in words) ([2]; statins at 1, 5 and 10 μM): most effective; also recorded: did so at 1, 5, and 10 μM
3 | did not lower protein concentration | O=C(CCCN1CCC2(CC1)C(=O)NCN2c1ccccc1)c1ccc(F)cc1 [Spiperone] | high (If KIAM/MW^4x10^10 > 0.85 the BBB penetration is predicted to be high) | increased sAPPα | increased total protein concentration | 23 |  |  | cell survival rescue (in words) (CHO-7W cells [4]): greatest cell survival rescue effects; Kp ([5]; male, C57B6, brain and plasma, other: subcutaneous and intraperitoneal (both routes), 0.25 mg/mouse, SQ and IP routes, read-out: brain:plasma ratio): ~0.5; Cmax ([5]; male, C57B6, brain, mouse, intraperitoneal (IP), 10 mg/kg, n = 1 per time point, read-out: peak brain level (Cmax)): ~205 ng/g; time of peak brain level ([5]; mouse, IP injection at 10 mg/kg): 1 h; time of peak brain level ([5]; mouse, both the subcutaneous and intraperitoneal routes): 1 h; peak brain level ([5]; mouse, subcutaneous, 50 μL of 5 mg/mL in DMSO, n = 1 per time point): ~70 ng/g
4 | did not lower protein concentration | CC(C)C(NC(=O)c1ccc2ccccc2n1)C(=O)NC(CC(=O)O)C(=O)COc1c(F)cccc1F (stereo not shown) [QVD-OPh, Q-VD-OPh] |  | increased sAPPα | increased total protein concentration | 0 | eliminated the cerivastatin-induced APPΔC31 increase | 95 | IC50 ([8]; Cricetulus griseus, ELISA, CHO-7W, read-out: IC50 (E), APPΔC31 inhibition): 7.5 µM; effect on simvastatin-induced APPΔC31 increase (in words) ([2]; 30 μM inhibitor plus 5 μM simvastatin): prevented 5 μM simvastatin-induced APPΔC31 increases; IC50 ([1]; AlphaLISA dose-response (Figure 5C), cerivastatin-stimulated, read-out: IC50, APPΔC31 inhibition): 7.5 µM
5 |  | O=C(CCCN1CCC2(CC1)C(=O)N(Cc1cccc(F)c1)CN2c1ccccc1)c1ccc(F)cc1 [3′Fluorobenzylspiperone maleate, 3′-fluorobenzylspiperone maleate] | low (If KIAM/MW^4x10^10 < 0.85 the BBB penetration is predicted to be low) | increased sAPPα | increased total protein concentration | 25 | decreased | 78 | KIAM (IAM capacity factor) ([3]; IAM.PC.DD2 column, water/methanol gradient): 3.2; KIAM/MW^4 x 10^10 ([3]; IAM.PC.DD2 column, correlation of Yoon et al. (2006)): 0.50; inhibition at 30 µM [9]: ~82%; IC50 ([1]; (A) AlphaLISA, cerivastatin-induced, read-out: IC50 (A), APPΔC31 inhibition): 2.2 µM
